Assay results reported in US9937115B2, “Oral care compositions with improved flavor” (priority 2010, dated 2018).
Where a name gives a salt, the structure may show the parent alone. Read-outs that look alike come from different tables or passages of the source. Residues, ends and D or L forms follow the SMILES beside them.

Target: T1, TRPA1 receptor (Homo sapiens, UniProt O75762)
T1 construct: expressed in transfected cells; host or cells: HEK cell line
Experiment: cell-based
Set-up: activation: dose or concentration left out as unconfirmed
Experimental: The term “TRPA1 activator” as used herein refers to any component which at a concentration of 1 mM gives a calcium flux count of at least 1000 counts above the background level of calcium present in the cell according to the FLIPR method as discussed herein. The term “count” is defined as the change in fluorescence of the transfected cell lines due to the influx of calcium across the cell membrane, which reacts with the calcium sensitive dye present within the cells.
In order to select TRPA1 agonists that would be preferred for reducing off-tasting chemical components found in oral care compositions, calcium flux receptor activity on the TRPA1 was utilized as the criteria for selection of actives. With allyl isothiocyanate as the TRPA1 positive control, molecules that directly activated the TRPA1 receptor were screened in dimethylsulfoxide (DMSO). Pure molecules of each material were dissolved in DMSO at a concentration of 100 micormolar and then added to an HEK cell line containing the TRPA1 receptor. If they are TRPA1 agonists, they will cause a calcium flux in the cell which fluoresces and may then be measured using a FLIPR machine.

[1] = HEK293, percentage of the control (allyl isothiocyanate) calcium count, material dissolved in DMSO at 100 micromolar, HEK cells with TRPA1, direct addition, read-out: TRPA1 Direct addition
[2] = HEK293, percentage of the control (allyl isothiocyanate) calcium count, material dissolved in DMSO at 100 micromolar, HEK cells with TRPA1, pre-incubation, read-out: TRPA1 Pre-incubation
[3] = HEK293, read-out: TRPA1 Direct addition
[4] = HEK293, read-out: TRPA1 Pre-incubation
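Throughout, for TRPA1 Pre-incubation: values above 100 mean more active than the control.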

T1 sequence (O75762 whole entry): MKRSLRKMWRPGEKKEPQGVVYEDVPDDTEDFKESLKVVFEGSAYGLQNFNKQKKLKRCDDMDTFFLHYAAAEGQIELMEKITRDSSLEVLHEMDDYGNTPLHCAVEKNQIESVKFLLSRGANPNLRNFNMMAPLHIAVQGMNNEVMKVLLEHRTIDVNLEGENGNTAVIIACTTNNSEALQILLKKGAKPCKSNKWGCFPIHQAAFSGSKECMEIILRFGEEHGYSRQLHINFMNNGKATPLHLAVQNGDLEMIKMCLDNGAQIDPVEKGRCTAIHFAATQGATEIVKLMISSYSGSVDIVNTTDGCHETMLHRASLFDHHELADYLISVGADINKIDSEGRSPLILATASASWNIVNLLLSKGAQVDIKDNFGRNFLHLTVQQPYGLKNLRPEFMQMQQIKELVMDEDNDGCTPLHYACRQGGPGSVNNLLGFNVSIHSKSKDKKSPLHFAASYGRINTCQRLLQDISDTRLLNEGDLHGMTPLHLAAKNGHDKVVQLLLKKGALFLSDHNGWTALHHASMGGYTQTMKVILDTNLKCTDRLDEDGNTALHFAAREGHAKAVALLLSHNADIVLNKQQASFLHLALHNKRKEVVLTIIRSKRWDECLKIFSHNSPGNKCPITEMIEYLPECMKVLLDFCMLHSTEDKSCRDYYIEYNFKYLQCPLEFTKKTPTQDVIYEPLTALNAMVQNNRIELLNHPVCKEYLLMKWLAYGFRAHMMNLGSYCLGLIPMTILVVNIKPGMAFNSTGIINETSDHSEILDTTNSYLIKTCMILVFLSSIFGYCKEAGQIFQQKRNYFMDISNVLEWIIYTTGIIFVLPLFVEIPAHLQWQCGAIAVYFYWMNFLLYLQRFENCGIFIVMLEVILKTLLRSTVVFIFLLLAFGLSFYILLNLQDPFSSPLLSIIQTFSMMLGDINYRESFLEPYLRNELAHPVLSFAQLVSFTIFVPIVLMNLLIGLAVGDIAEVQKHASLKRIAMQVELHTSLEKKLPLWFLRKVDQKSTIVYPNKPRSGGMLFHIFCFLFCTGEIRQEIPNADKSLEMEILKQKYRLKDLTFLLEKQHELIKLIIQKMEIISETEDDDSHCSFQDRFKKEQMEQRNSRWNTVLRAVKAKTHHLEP

| Compound | activation at 100 µM [1] [%] | activation [2] [%] | also measured |
| --- | --- | --- | --- |
| 2-Methybutyl Isovalerate |  |  | TRPA1 Direct addition: −1.49%; TRPA1 Pre-incubation: 69.9% |
| CC=Cc1ccc(OCc2ccccc2)c(OC)c1 [1-Benzyloxy-2-Mehtoxy-4-(1-Propenyl) Benzene] |  |  | TRPA1 Direct addition: −3.8%; TRPA1 Pre-incubation: 30.8% |
| Cn1cccc1C=O [1-Methylpyrrole-2-carboxaldehyde] | -3.47 | -1.04 |  |
| Cc1cnc(C)c(C)n1 [2,3,5-Trimethyl-pyrazine] | -1.13 | 48.8 |  |
| CCc1ncc(C)nc1CC [2,3-Diethyl-5-Methylpyrazine] | 0.99 | 76.9 |  |
| Cc1nccnc1C [2,3-Dimethylpyrazine] | -1.77 | 62.6 |  |
| CCCC(=O)C(C)=O [2,3-Hexanedione] | -0.19 | 101 |  |
| Cc1cnc(C)cn1 [2,5-Dimethylpyrazine] | -1.08 | 66.8 |  |
| CC1=C(CC=O)C(C)(C)CCC1 [2,6,6-Trimethyl-1-cyclohexene-1-acetaldehyde] | -0.32 | 106 |  |
| COc1cccc(OC)c1O [2,6-Dimethoxyphenol] | -0.24 | 71.6 |  |
| CC(C)=CCCC(C)C=O (stereo not drawn) [2,6-Dimethyl-5-Heptenal] | -0.15 |  | activation at 100 µM [2]: 97.6% |
| CCc1cnccn1 [2-Ethylpyrazine] | -1.56 | 49.9 |  |
| CCc1ccccc1S [2-Ethylthiophenol] | 0.34 | 5.23 |  |
| COc1nccnc1C [2-Methoxy-3-Methylpyrazine] | -0.83 | 84.7 |  |
| C=Cc1ccc(O)c(OC)c1 [2-Methoxy-4-Vinylphenol] | 1.16 | 71.4 |  |
| CCC(C)CO (stereo not drawn) [2-Methyl-1-Butanol] | -1.19 | 71.6 |  |
| CCC=C(C)C(=O)O [2-Methyl-2-Pentenoic Acid] | -1.27 | 73.8 |  |
| CCC(C)COC(C)=O (stereo not drawn) [2-Methylbutyl Acetate] | -0.99 | 60.3 |  |
| CC1OCCC1=O (stereo not drawn) [2-Methyltetrahydrofuran-3-one] | -1.5 | 77.5 |  |
| CCCCCCCCCC(C)C=O (stereo not drawn) [2-Methylundecanal] | 0.82 | 79.8 |  |
| CCCCCCCCCCCC(C)=O [2-Tridecanone] | 7.21 | 60.8 |  |
| CCC(C)C1CCCCC1=O (stereo not drawn) [2-sec-Butylcyclohexanon] | -1.47 | 63.7 |  |
| CC(CC=O)CC(C)(C)C (stereo not drawn) [3,5,5-Trimethyl Hexanal] | 75.7 | 92.2 |  |
| CSCCCO [3-(Methylthio) Propanol] | -0.92 | 73.1 |  |
| CC(=O)c1cc(C)sc1C [3-Acetyl-2,5-Dimethylthiophene] | 5.75 | 64.4 |  |

| Compound | activation at 100 µM [1] [%] | activation [2] [%] | also measured |
| --- | --- | --- | --- |
| CC(C)=CC=O [3-Methyl-2-Butenal] | 34.4 | 66.3 |  |
| CCC(C)C(=O)OCCC(C)C (stereo not drawn) [3-Methylbutyl-2-Methylbutanoate] | -1.18 | 71.4 |  |
| OCCCc1ccccc1 [3-Phenyl-1-Propanol] | -0.04 | 92.2 |  |
| CCC=C1OC(=O)c2ccccc21 [3-Propylidenephthalide] | 116 | 6.21 |  |
| Cc1coc2c1CCC(C)C2 (stereo not drawn) [4,5,6,7-Tetrahydro-3,6-Dimethylbenzofuran] | 0.57 | 84.8 |  |
| CC1=C(O)C(=O)OC1C (stereo not drawn) [4,5-Dimethyl-3-Hydroxy-2,5-Dihydrofuran-2-one] | 0.18 | 89.1 |  |
| COc1ccc(CCC(C)=O)cc1 [4-(4-Methoxyphenyl)-2-Butanone] | -3.93 | 71.3 |  |
| C=CCc1cc(OC)c(O)c(OC)c1 [4-Allyl-2,6-Dimethoxyphenol] | 39.2 | 15.5 |  |
| CC1=C(O)C(=O)C(C)O1 (stereo not drawn) [4-Hydroxy-2,5-Dimethyl-3(2H)-Furanone] | 2.68 | 72 |  |
| COc1cc(C)cc(OC)c1O [4-Methyl-2,6-Dimethoxyphenol] | 45.9 | 9.25 |  |
| CC(=O)OCCc1scnc1C [4-Methyl-5-Thiazoleethanol Acetate] | 0.62 | 76.4 |  |
| Cc1ncsc1CCO [4-Methyl-5-Thiazoleethanol] | 0.56 | 72.8 |  |
| CCC1OC(=O)C(O)=C1C (stereo not drawn) [5-Ethyl-3-Hydroxy-4-Methyl-2(5H)-Furanone] | 1.79 | 72.5 |  |
| CC=CC(=O)C(C)CC (stereo not drawn) [5-Methyl-2-Hepten-4-one] | 15.5 | 87.8 |  |
| CC(C)CC=C(C=O)c1ccccc1 [5-Methyl-2-Phenyl-2-Hexenal] |  |  | activation [3]: 132%; activation [4]: -11.7% |
| CC1=CC(=O)[N-]S(=O)(=O)O1.[K+] [Acesulfame K] |  |  | TRPA1 Direct addition: −0.12%; TRPA1 Pre-incubation: 95.57% |
| CC(=O)O [Acetic Acid] |  |  | activation [3]: 0.27%; activation [4]: 68.5% |
| CC(=O)C(C)O (stereo not drawn) [Acetoin] | 0.29 | 82.6 |  |
| CC(=O)c1ccccc1 [Acetophenone] | 0.64 | 81.1 |  |
| C=CCOC(=O)CCC [Allyl Butyrate] | 0.02 | 98 |  |
| C=CCOC(=O)CCC1CCCCC1 [Allyl Cyclohexanepropionate] | 0.45 | 81.7 |  |
| C=CCOC(=O)CCCCC [Allyl Hexanoate] | 0.75 | 88.1 |  |
| C=CCN=C=S [Allyl Isothiocyanate, reference compound] |  | 21.6 | % of AITC Receptor Activation (from Data in Table II) (restated in Table III from Table II): 100% |
| C=CCOC(=O)CCCCCCCC [Allyl Nonanoate] | -1.87 | 69.6 |  |
| C=CCOC(=O)c1ccccc1N [Allyl anthranilate] | 0.29 | 99.5 |  |

| Compound | activation at 100 µM [1] [%] | activation [2] [%] | also measured |
| --- | --- | --- | --- |
| CC(=O)OC(C)(C)Cc1ccccc1 [Alpha, Alpha Dimethylphenethyl Acetate] | -3.2 | 72 |  |
| CCCCCC(=Cc1ccccc1)C(OC)OC [Alpha-Amylcinnamaldehyde Dimethyl acetal] | -2.4 | -0.12 |  |
| CC(=O)OC(C)c1ccccc1 (stereo not drawn) [Alpha-Methylbenzyl Acetate] | 1.45 | 70.8 |  |
| CC1=CCC2CC1C2(C)C (stereo not drawn) [Alpha-Pinene] | -3.07 | 86.6 |  |
| CC1=CCC(C(C)(C)O)CC1 (stereo not drawn) [Alpha-Terpineol] | 15.8 | 60.5 |  |
| CCCCCOC(=O)c1ccco1 [Amyl 2-Furoate] | -2.39 | 74.1 |  |
| CCCCCO [Amyl Alcohol] | -1.94 | 85.9 |  |
| CCCCCOC(=O)CCC [Amyl Butyrate] | -2.64 | 75.9 |  |
| COC(=O)[C@H](Cc1ccccc1)NC(=O)[C@@H](N)CC(=O)O [Aspartame] (H-Asp-Phe-OMe) | -2.15 | 80 |  |
| COC(OC)c1ccccc1 [Benzaldehyde Dimethyl Acetal] |  |  | activation [3]: -0.68%; activation [4]: 120% |
| O=Cc1ccccc1 [Benzaldehyde] | -1.46 | 90.1 |  |
| O=C(c1ccccc1)C(O)c1ccccc1 (stereo not drawn) [Benzoin] | -0.5 | 56.2 |  |
| c1ccc2scnc2c1 [Benzothiazole] | -2.29 | 81.5 |  |
| CC(=O)OCc1ccccc1 [Benzyl Acetate] | -0.31 | 74.5 |  |
| OCc1ccccc1 [Benzyl Alcohol] | 21.4 | 14.6 |  |
| O=C(OCc1ccccc1)c1ccccc1 [Benzyl Benzoate] | 53.9 | 18.9 |  |
| CCCC(=O)OCc1ccccc1 [Benzyl Butyrate] | -3.01 | 58.7 |  |
| O=C(C=Cc1ccccc1)OCc1ccccc1 [Benzyl Cinnamate] |  | 81.1 | activation [1]: -2.39% |
| CCOCc1ccccc1 [Benzyl Ethyl Ether] | -2.24 | 66.2 |  |
| O=COCc1ccccc1 [Benzyl Formate] |  | 75.3 | activation [1]: -3.01% |
| CC(C)C(=O)OCc1ccccc1 [Benzyl Isobutyrate] | -2.7 | 65 |  |
| CCC(=O)OCc1ccccc1 [Benzyl Propionate] | 0.52 | 63 |  |
| C=C1CC/C=C(\C)CC[C@@H]2[C@@H]1CC2(C)C [Beta-Caryophyllene] | 0.21 | 97.8 |  |
| C=C1CCC2CC1C2(C)C (stereo not drawn) [Beta-Pinene] | -6.02 | 73.6 |  |
| CC1(C)C2CCC1(C)C(O)C2 (stereo not drawn) [Borneol] | -1.6 | 51 |  |
